Values quoted from earlier work, collected in paper PMC7927942 (Journal of chemical information and modeling, 2020).

Molecular target: wild-type JAK2 JH2 (Homo sapiens, UniProt O60674)
Settings: benchmark ligand from high-throughput screen

Sequence of wild-type JAK2 JH2 (O60674 545-809 limits assumed): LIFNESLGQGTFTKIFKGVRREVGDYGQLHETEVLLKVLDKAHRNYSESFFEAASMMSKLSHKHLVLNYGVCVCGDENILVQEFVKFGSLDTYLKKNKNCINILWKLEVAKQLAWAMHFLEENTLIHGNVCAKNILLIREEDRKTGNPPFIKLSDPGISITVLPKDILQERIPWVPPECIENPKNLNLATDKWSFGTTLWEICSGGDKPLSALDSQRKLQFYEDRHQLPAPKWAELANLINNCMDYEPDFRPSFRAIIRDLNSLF

Structure (SMILES): O=C(Nc1nc2cccc(-c3ccc(CN4CCS(=O)(=O)CC4)cc3)n2n1)C1CC1 [filgotinib]
- % binding at 50 μM: 9%
